Counter-ions that a name gives are not always drawn.

T1 sequence (P34969 whole entry, the tested form may be a part): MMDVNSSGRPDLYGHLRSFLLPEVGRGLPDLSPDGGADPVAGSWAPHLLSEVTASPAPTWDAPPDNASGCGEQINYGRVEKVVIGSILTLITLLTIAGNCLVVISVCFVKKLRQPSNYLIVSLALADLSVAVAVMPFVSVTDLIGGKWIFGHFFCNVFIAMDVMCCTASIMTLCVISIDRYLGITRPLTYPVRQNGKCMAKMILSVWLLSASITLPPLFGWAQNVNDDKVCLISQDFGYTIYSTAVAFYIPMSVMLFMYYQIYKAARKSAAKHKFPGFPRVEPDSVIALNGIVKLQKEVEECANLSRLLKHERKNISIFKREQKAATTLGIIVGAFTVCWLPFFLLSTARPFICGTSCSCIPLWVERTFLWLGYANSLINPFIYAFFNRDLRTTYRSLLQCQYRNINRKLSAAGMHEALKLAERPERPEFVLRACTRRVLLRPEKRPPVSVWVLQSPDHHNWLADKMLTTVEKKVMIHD

The target in one assay is T1, 5HT7 receptors (Homo sapiens, UniProt P34969). Description: Functional data (Kb), HitHunter cAMP enzyme fragment complementation assay with 5-HT as agonist. Particulars: Table 35, scaffold drawing 615; antagonist mode vs 5-HT; read-out: Kb. The assay is classed as cell-based. Details: expressed in transfected cells; G418 selection). The method, then:
Functional efficacy of the compounds of the disclosure on 5-HT7 serotonin receptors were measured in a cell based cAMP enzyme fragment complementation assay using the HitHunter cAMP assay (DiscoveRx). Cells stably expressing human 5HT7 receptors were plated in 96-well plates at 4000 cells/well, 16-20 hours prior to assay in growth media (Ultraculture medium, 2 mM GlutaMax and G418 1 mg/mL. Serial dilutions of the agonist, 5-hydroxytryptamine (5-HT), were prepared in a final concentration range of 10 μM to 10 nM. Compounds of the disclosure were prepared in 3-fold serial dilutions to obtain a final concentration range of 10 μM to 0.1 nM. Compounds of the disclosure are tested for agonist activity in the absence of 5-HT and antagonist activity in the presence of 5-HT. For the cAMP assay, the protocol was followed according to the instructions provided by the supplier. Briefly, cells were incubated with a compound of the disclosure for 30 minutes at 37° C. prior to addition of EC70 concentration of 5-HT. After an additional 30 minutes, cAMP antibody/cell lysis solution was added (20 μL/well) and incubated for 60 minutes at room temperature. cAMP XS+EA reagent is added (20 μL/well) and incubated for 2 hours at room temperature. Luminescence was read on the Envision Multilabel plate reader.
A word on the Kb: it is the equilibrium dissociation constant of an antagonist, usually derived from a functional assay. `CCC1(CC)C[C@H](CCN2CCN(c3cccc(Cl)c3)CC2)NC1=O` [(R)-5-(2-(4-(3-chlorophenyl)piperazin-1-yl)ethyl)-3,3-diethylpyrrolidin-2-one]: the Kb is 1.38 nM.

In the case of `CCC1(CC)C[C@H](CCN2CCN(c3ccccn3)CC2)NC1=O` [(R)-3,3-diethyl-5-(2-(4-(pyridin-2-yl)piperazin-1-yl)ethyl)pyrrolidin-2-one], the Kb amounted to 4.91 nM.

For the molecule `CCC1(CC)C[C@H](CCN2CCN(c3ccc(C(F)(F)F)cc3)CC2)NC1=O` [(R)-3,3-diethyl-5-(2-(4-(4-(trifluoromethyl)phenyl)piperazin-1-yl)ethyl)pyrrolidin-2-one], the Kb turned out to be 137 nM.

`CCC1(CC)C[C@H](CCN2CCN(c3ccccc3)CC2)NC1=O` [drawing 615 n=2 R1=Ethyl R2=Ethyl R3=Phenyl, (R)-3,3-diethyl-5-(2-(4-phenylpiperazin-1-yl)ethyl)pyrrolidin-2-one]: the Kb was found to be 6.59 nM.

With `CCC1(CC)C[C@H](CCN2CCN(c3ccccc3C)CC2)NC1=O` [(R)-5-(2-(4-(2-methylphenyl)piperazin-1-yl)ethyl)-3,3-diethylpyrrolidin-2-one], the Kb was 127 nM.

On to `CCC1(CC)C[C@H](CCN2CCN(c3cccc(C)c3)CC2)NC1=O` [(R)-5-(2-(4-(3-methylphenyl)piperazin-1-yl)ethyl)-3,3-diethylpyrrolidin-2-one], for which the Kb is 1.65 nM.

With `CCC1(CC)C[C@H](CCN2CCN(c3ccccc3OC)CC2)NC1=O` [(R)-3,3-diethyl-5-(2-(4-(2-methoxyphenyl)piperazin-1-yl)ethyl)pyrrolidin-2-one], the Kb was 230 nM.

Regarding `CCC1(CC)C[C@H](CCN2CCN(c3cccc(F)c3)CC2)NC1=O` [(R)-5-(2-(4-(3-fluorophenyl)piperazin-1-yl)ethyl)-3,3-diethylpyrrolidin-2-one], the Kb worked out at 9.89 nM.

Turning to `CCC1(CC)C[C@H](CCN2CCN(c3ccc(C#N)cc3)CC2)NC1=O` [(R)-4-(4-(2-(4,4-diethyl-5-oxopyrrolidin-2-yl)ethyl)piperazin-1-yl)benzonitrile], the Kb was 544 nM.

Regarding `CCC1(CC)C[C@H](CCN2CCN(c3ccccc3Cl)CC2)NC1=O` [(R)-5-(2-(4-(2-chlorophenyl)piperazin-1-yl)ethyl)-3,3-diethylpyrrolidin-2-one], the Kb is 109 nM.

The same assay, now with this note: Table 36, scaffold drawing 616; antagonist mode vs 5-HT; read-out: Kb.
Regarding `O=C1N[C@H](CCN2CCN(c3ccc(F)cc3)CC2)CC12CCCC2` [(S)-3-(2-(4-(4-fluorophenyl)piperazin-1-yl)ethyl)-2-azaspiro[4.4]nonan-1-one], the Kb was 52.6 nM.

As for `O=C1N[C@H](CCN2CCN(c3cccc(Cl)c3)CC2)CC12CC=CC2` [(S)-3-(2-(4-(3-chlorophenyl)piperazin-1-yl)ethyl)-2-azaspiro[4.4]non-7-en-1-one], the Kb stood at 36.3 nM.

Take `O=C1N[C@H](CCN2CCN(c3ccc(F)cc3)CC2)CC12CC=CC2` [(S)-3-(2-(4-(4-fluorophenyl)piperazin-1-yl)ethyl)-2-azaspiro[4.4]non-7-en-1-one]: the Kb turned out to be 46.2 nM.

Turning to `O=C1N[C@H](CCN2CCN(c3cccc(Cl)c3)CC2)CC12CCCC2` [(S)-3-(2-(4-(3-chlorophenyl)piperazin-1-yl)ethyl)-2-azaspiro[4.4]nonan-1-one], the Kb worked out at 48.4 nM.

Staying with this assay, now noted: Table 37, scaffold drawing 617; antagonist mode vs 5-HT; read-out: Kb.
For the molecule `CS(=O)(=O)N1CCC2(CC1)C[C@H](CCCN1CCN(c3cccc(Cl)c3)CC1)NC2=O` [drawing 617 n=3 R3=3-Cl-Phenyl R7=MeSO2, (S)-3-(3-(4-(3-chlorophenyl)piperazin-1-yl)propyl)-8-(methylsulfonyl)-2,8-diazaspiro[4.5]decan-1-one], the Kb worked out at 321 nM.

On to `CS(=O)(=O)N1CCC2(CC1)C[C@H](CCCN1CCN(c3ccc(F)cc3)CC1)NC2=O` [drawing 617 n=3 R3=4-F-Phenyl R7=MeSO2, (S)-3-(3-(4-(4-fluorophenyl)piperazin-1-yl)propyl)-8-(methylsulfonyl)-2,8-diazaspiro[4.5]decan-1-one], for which the Kb stood at 526 nM.

The assay is the same for the next values; noted with them: Table 39, scaffold drawing 619; antagonist mode vs 5-HT; read-out: Kb.
Take `CCC1(CC)C[C@H](CCN2CC3CN(c4ccccc4)CC3C2)NC1=O` (stereo partly drawn) [drawing 619 n=2 R1=Ethyl R2=Ethyl R3=Phenyl, (5R)-3,3-diethyl-5-(2-(5-phenylhexahydropyrrolo[3,4-c]pyrrol-2(1H)-yl)ethyl)pyrrolidin-2-one]: the Kb was found to be 144 nM.

The assay is the same for the next values; noted with them: cAMP assay, cells stably expressing human 5HT7 receptors, antagonist activity in the presence of EC70 5-HT; read-out: Kb (nM)^2.
On to `CCC1(CC)CC(CCN2CCN(c3ccccc3C(C)C)CC2)NC1=O` (stereo not drawn) [3,3-diethyl-5-(2-(4-(2-isopropylphenyl)piperazin-1-yl)ethyl)pyrrolidin-2-one], for which the Kb was found to be 163 nM.

For the molecule `CS(=O)(=O)N1CCC2(CC1)C[C@@H](CCN1CCN(c3ccc(F)cc3)CC1)NC2=O` [drawing 618; n=2; R3=4-F-Phenyl; R7=MeSO2, (S)-3-(2-(4-(4-fluorophenyl)piperazin-1-yl)ethyl)-8-(methylsulfonyl)-2,8-diazaspiro[4.5]decan-1-one], the Kb was 74.2 nM.

The target of the next assay is T1, 5HT7 receptors. Description: Radiolabeled binding (IC50 and Ki), [3H]LSD competition on membranes of cells expressing recombinant 5HT7 receptors. Conditions: Table 35, scaffold drawing 615. Details: expressed in transfected cells. On the procedure: Radiolabel Binding Studies for Serotonin 5HT7 Receptors, Method 1:
A solution of the compound of the disclosure to be tested is prepared as a 1-mg/ml stock in Assay Buffer or DMSO according to its solubility. A similar stock of the reference compound chlorpromazine is also prepared as a positive control. Eleven dilutions (5×assay concentration) of the compound of the disclosure and chlorpromazine are prepared in the Assay Buffer by serial dilution to yield final corresponding assay concentrations ranging from 10 pM to 10 μM.
A stock concentration of 5 nM [^3H]LSD (lysergic acid diethyl amide) is prepared in 50 mM Tris-HCl, 10 mM MgCl2, 1 mM EDTA, pH 7.4 (Assay Buffer). Aliquots (50 μl) of radioligand are dispensed into the wells of a 96-well plate containing 100 μl of Assay Buffer. Duplicate 50-μl aliquots of the compound of the disclosure test and chlorpromazine positive control reference compound serial dilutions are added.
Membrane fractions of cells expressing recombinant 5HT7 receptors (50 μL) are dispensed into each well. The membranes are prepared from stably transfected cell lines expressing 5HT7 receptors cultured on 10-cm plates by harvesting PBS-rinsed monolayers, resuspending and lysing in chilled, hypotonic 50 mM Tris-HCl, pH 7.4, centrifuging at 20,000×g, decanting the supernatant and storing at −80° C.; the membrane preparations are resuspended in 3 ml of chilled Assay Buffer and homogenized by several passages through a 26 gauge needle before using in the assay.
The 250-μl reactions are incubated at room temperature for 1.5 hours, then harvested by rapid filtration onto 0.3% polyethyleneimine-treated, 96-well filter mats using a 96-well Filtermate harvester. Four rapid 500-μl washes are performed with chilled Assay Buffer to reduce non-specific binding. The filter mats are dried, then scintillant is added to the filters and the radioactivity retained on the filters is counted in a Microbeta scintillation counter.
Raw data (dpm) representing total radioligand binding (i.e., specific+non-specific binding) are plotted as a function of the logarithm of the molar concentration of the competitor (i.e., test or reference compound). Non-linear regression of the normalized (i.e., percent radioligand binding compared to that observed in the absence of test or reference compound) raw data is performed in Prism 4.0 (GraphPad Software) using the built-in three parameter logistic model describing ligand competition binding to radioligand-labeled sites: y=bottom+[(top-bottom)/(1+10×−logIC50)] where bottom equals the residual radioligand binding measured in the presence of 10 μM reference compound (i.e., non-specific binding) and top equals the total radioligand binding observed in the absence of competitor. The log IC50 (i.e., the log of the ligand concentration that reduces radioligand binding by 50%) is thus estimated from the data and used to obtain the Ki by applying the Cheng-Prusoff approximation: Ki=IC50/(1+[ligand]/KD) • where [ligand] equals the assay radioligand concentration and KD equals the affinity constant of the radioligand for the target receptor.
^1Radiolabeled Binding (IC50 and K1)
A solution of the compound of the disclosure to be tested was prepared as a 1-mg/ml stock in Assay Buffer or DMSO according to its solubility. A similar stock of the reference compound chlorpromazine was also prepared as a positive control. Eleven dilutions (5× assay concentration) of the compound of the disclosure and chlorpromazine were prepared in the Assay Buffer by serial dilution to yield final corresponding assay concentrations ranging from […].
A stock concentration of 5 nM [^3H]LSD (lysergic acid diethyl amide) was prepared in 50 mM Tris-HCl, 10 mM MgCl2, 1 mM EDTA, pH 7.4 (Assay Buffer). Aliquots (50 μl) of radioligand were dispensed into the wells of a 96-well plate containing 100 μl of Assay Buffer. […]
The Ki is the dissociation constant of the complex between target and ligand, obtained from inhibition or displacement. Turning to `CCC1(CC)C[C@H](CN2CCN(c3ccccc3)CC2)NC1=O` [drawing 615 n=1 R1=Ethyl R2=Ethyl R3=Phenyl, (R)-3,3-diethyl-5-((4-phenylpiperazin-1-yl)methyl)pyrrolidin-2-one formate], the Ki came out at 819 nM.

Consider `CCC1(CC)C[C@H](CN2CCN(c3ccc(C)cc3)CC2)NC1=O` [(R)-3,3-diethyl-5-((4-(p-tolyl)piperazin-1-yl)methyl)pyrrolidin-2-one formate], for which the Ki was 249 nM.

As for `CCC1(CC)C[C@H](CN2CCN(c3ccccc3C(C)C)CC2)NC1=O` [(R)-3,3-diethyl-5-((4-(2-isopropylphenyl)piperazin-1-yl)methyl)pyrrolidin-2-one formate], the Ki was found to be 121 nM.

`CCC1(CC)C[C@H](CN2CCN(c3ccccn3)CC2)NC1=O` [(R)-3,3-diethyl-5-((4-(pyridin-2-yl)piperazin-1-yl)methyl)pyrrolidin-2-one formate]: the Ki is 669 nM.

For the molecule `CCC1(CC)C[C@H](CN2CCN(c3cccc(Cl)c3)CC2)NC1=O` [(R)-5-((4-(3-chlorophenyl)piperazin-1-yl)methyl)-3,3-diethylpyrrolidin-2-one], the Ki turned out to be 1090 nM.

As for `CCC1(CC)C[C@H](CN2CCN(c3ccc(F)cc3)CC2)NC1=O` [(R)-3,3-diethyl-5-((4-(4-fluorophenyl)piperazin-1-yl)methyl)pyrrolidin-2-one formate], the Ki turned out to be 243 nM.

Staying with this assay, now noted: Table 35, scaffold drawing 615; read-out: IC50.
For orientation: IC50 means the concentration at which inhibition is half-maximal. Regarding `CCC1(CC)C[C@H](CCN2CCN(c3cccc(Cl)c3)CC2)NC1=O` [(R)-5-(2-(4-(3-chlorophenyl)piperazin-1-yl)ethyl)-3,3-diethylpyrrolidin-2-one], the IC50 was determined as 9.9 nM.

Still in this assay, the particulars now being: [3H]LSD radioligand, membranes of cells expressing recombinant 5HT7 receptors; read-out: IC50 (nM)^1.
`CCC1(CC)CC(CCN2CCN(c3ccccc3C(C)C)CC2)NC1=O` (stereo not drawn) [3,3-diethyl-5-(2-(4-(2-isopropylphenyl)piperazin-1-yl)ethyl)pyrrolidin-2-one]: the half-maximal inhibitory concentration (IC50) was found to be 23 nM.

These data come from patent publication US12559494B2, “Functionalized lactams as modulators of the 5-hydroxytryptamine receptor 7 and their method of use” (Temple University - Of The Commonwealth System of Higher …, priority 2018, dated 2026).
